Test results published in patent US11040947B2, “Substituted quinazolines as matrix metalloproteinase-9 hemopexin domain inhibitors” (The Research Foundation for The State University of New York, priority 2017, dated 2021).

Key:
[1] = target: T1, proMMP-9 (Homo sapiens, UniProt P14780); assay: proMMP-9 tryptophan fluorescence blue shift binding assay; details: binding to proMMP-9, tryptophan fluorescence
T1 construct: Purified recombinant MMP-9 (50 nmol/L) or MMP-9/MMP-2PEX (50 nmol/L) was diluted in buffer
Description: A blue shift in proMMP-9 tryptophan fluorescence was monitored to determine the binding affinity of all compounds. Binding of a test compound to MMP-9 was assayed by observing the change of tryptophan emission upon binding. Purified recombinant MMP-9 (50 nmol/L) or MMP-9/MMP-2PEX (50 nmol/L) was diluted in buffer (50 mmol/L Tris-HCl, 60 mmol/L KCl, and 0.05% Tween 20, pH 7.4) in the presence or absence of the test compound. As a control for protein stability and loss, an analogous buffer solution was added to the protein. The protein sample was excited at 280 nm and emission scans were collected from 290 to 400 nm, using slit widths of 0.3 nm on a QM 4/200SE spectrofluorimeter with double excitation and emission monochromators. Three emission scans were collected and averaged at each concentration. The Kd was determined using the Prism software package (GraphPad V5) to fit the data to Equation (Δ). λmax=(λmax^∞×[2])/(Kd+[2]) (A) in which λmax is the wavelength at which maximal fluorescence of the protein was observed.

[2] = tested on: proMMP9-mediated migration of COS-1 cells; assay: two-dimensional collagen dot migration assay, COS-1 cells overexpressing proMMP-9; type: cell-based; details: for inhibition at 50 µM: Chlorocebus aethiops
Description: This assay was initially used to test the efficacy of analogs at a single concentration, 50 μM.
Cells were mixed with type I collagen solution with or without compound, dotted onto a 96-well plate, and allowed to migrate for 18 hours. They were then fixed, stained and scored for extent of migration.

[3] = tested on: FAK and PAX adhesion junctions in HT1080 cells; assay: focal adhesion complexes, immunofluorescence in HT1080 cells; type: cell-based, Human
[4] = target: T2, APMA-activated recombinant proMMP-9 (Homo sapiens, UniProt P14780); assay: MMP-9 catalytic activity with fluorogenic peptide; type: biochemical; details: 10 μM fluorogenic peptide, monitored over 2 hours
T2 construct: made in house
Description: Recombinant proMMP-9 protein was purified and incubated overnight in a 37° C. water bath in TNC buffer+1 mM APMA to artificially activate the protein.

[5] = tested on: HT1080 cells; assay: cell adhesion to collagen or fibronectin coated plate; type: cell-based, Human; details: 37° C. 30 min
Description: A 96-well plate was coated with a thin layer of either collagen or fibronectin (5 μg/ml in PBS) substrate before use. HT1080 cells were then seeded onto wells and incubated at 37° C. for 30 min in the presence of various inhibitors. Wells were washed and cells were fixed in 4% paraformaldehyde and stained with DAPI. Images of each 96-well were microscopically captured and counted for the number of cells still adherent to the coated surface using automated computer software.

[6] = tested on: MMP-9 at the cell surface of HT1080 cells; assay: MMP-9 cell surface localization, immunofluorescence in HT1080 cells; type: cell-based, Human
Description: HT1080 cells were fixed in 4% paraformaldehyde then subsequently incubated with anti-MMP-9 in addition to anti-α4 and/or β1 integrin antibodies to monitor relative levels of localization of these proteins at the cell surface. The cells were counterstained with DAPI nuclear dye.

[7] = tested on: Src^Tyr418, FAK^Tyr576/577, PAX^Tyr118 phosphorylation; assay: phosphorylation of Src and downstream targets in HT1080 cells; type: cell-based, Human; details: 50 μM
Description: (§1) HT1080 cells transiently co-transfected with tagged MMP-9 cDNAs were prepared as described above.

[8] = tested on: HT1080 cells; assay: chorioallantoic membrane (CAM) assay, angiogenesis; type: in vivo, chicken embryo; details: 100 μM stock solution (final estimated 0.5 μM), 4-day incubation, vs DMSO and 1f
Description: A CAM assay was carried out to evaluate angiogenic and invasive potential of HT1080 cells after treatment with 3c. […] After a 4-day incubation, neovascularization was imaged and quantified.

[9] = tested on: proMMP9-mediated migration of COS-1 cells; assay: two-dimensional dot migration assay, COS-1 cells stably expressing proMMP-9; type: cell-based
Description: (§2) To test whether compound 3c is specific for inhibiting only proMMP9-mediated migration, a two-dimensional dot migration assay was performed using COS-1 cells engineered to stably express vector control pQCXIP, proMMP-2, proMMP-9, or proMMP-14 cDNA vectors. An immunoblot was performed to confirm protein expression and proper localization of each MMP (MMP-2/-9 are secreted while MMP-14 is membrane bound).

[10] = tested on: EGFR^Tyr1068, AKT^Ser473, Erk1/2^Thr202/Tyr204 phosphorylation; assay: phosphorylation of EGFR and downstream targets in HT1080 cells; type: cell-based, Human; details: 50 μM overnight
[11] = target: T3, MMP-9 association with CD44 and EGFR (Homo sapiens, UniProt P14780); assay: co-immunoprecipitation of endogenous CD44 and EGFR with MMP-9 in HT1080 cells; type: cell-based; details: 50 μM overnight
T3 construct: expressed in transfected cells; host or cells: HT1080 human fibrosarcoma cells (MMP-9 transfected; CD44 and EGFR endogenous)

[12] = target: T4, MMP-9 interaction with α4/β1 integrin (Homo sapiens, UniProt P14780); assay: co-immunoprecipitation of endogenous integrin with MMP-9 in HT1080 cells; type: cell-based; details: 50 μM
T4 construct: expressed in transfected cells; host or cells: HT1080 cells (MMP-9 transfected; integrin endogenous)
Description: as §1

[13] = tested on: proMMP-14-mediated migration of COS-1 cells; assay: two-dimensional dot migration assay, COS-1 cells stably expressing proMMP-14; type: cell-based
Description: as §2

[14] = tested on: proMMP-2-mediated migration of COS-1 cells; assay: two-dimensional dot migration assay, COS-1 cells stably expressing proMMP-2; type: cell-based
Description: as §2

[15] = tested on: HT1080 cells stably expressing GFP; assay: chorioallantoic membrane (CAM) assay, invasion; type: in vivo, chicken embryo; details: 100 μM stock solution (final estimated 0.5 μM), vs DMSO or 1f
Description: HT1080 cells stably expressing GFP were mixed with a type I collagen solution (3 mg/mL) and seeded atop the CAM to ensure the cells localized to a specific area. […] The invasion of cancer cells through the epithelium and basement membrane of the upper CAM into connecting tissue was examined by hematoxylin and eosin staining in addition to fluorescence microscopy for GFP^+ cells.

[16] = tested on: COS-1 cells stably expressing vector control or proMMP-9; assay: acute cytotoxicity in COS-1 cells; type: cell-based; details: 100 nM staurosporine (positive control), 24 hours
Description: Compound 3c was evaluated for acute cytotoxicity. COS-1 cells stably expressing either vector control or proMMP-9 cDNA were treated with 50 μM 3c for 24 hours. As negative and positive controls, cells were treated with DMSO alone or 100 nM staurosporine (STS), an apoptosis inducer, respectively. […] A non-statistically significant 8% decrease in cell growth occurred after treatment with 50 μM of compound 3c. These experiments were repeated in endogenous MMP-9 expressing HT1080 fibrosarcoma cells, which were analyzed for chronic toxicity (cells were re-treated every three days for a total of nine days).

T1 sequence (P14780 20-707 limits assumed): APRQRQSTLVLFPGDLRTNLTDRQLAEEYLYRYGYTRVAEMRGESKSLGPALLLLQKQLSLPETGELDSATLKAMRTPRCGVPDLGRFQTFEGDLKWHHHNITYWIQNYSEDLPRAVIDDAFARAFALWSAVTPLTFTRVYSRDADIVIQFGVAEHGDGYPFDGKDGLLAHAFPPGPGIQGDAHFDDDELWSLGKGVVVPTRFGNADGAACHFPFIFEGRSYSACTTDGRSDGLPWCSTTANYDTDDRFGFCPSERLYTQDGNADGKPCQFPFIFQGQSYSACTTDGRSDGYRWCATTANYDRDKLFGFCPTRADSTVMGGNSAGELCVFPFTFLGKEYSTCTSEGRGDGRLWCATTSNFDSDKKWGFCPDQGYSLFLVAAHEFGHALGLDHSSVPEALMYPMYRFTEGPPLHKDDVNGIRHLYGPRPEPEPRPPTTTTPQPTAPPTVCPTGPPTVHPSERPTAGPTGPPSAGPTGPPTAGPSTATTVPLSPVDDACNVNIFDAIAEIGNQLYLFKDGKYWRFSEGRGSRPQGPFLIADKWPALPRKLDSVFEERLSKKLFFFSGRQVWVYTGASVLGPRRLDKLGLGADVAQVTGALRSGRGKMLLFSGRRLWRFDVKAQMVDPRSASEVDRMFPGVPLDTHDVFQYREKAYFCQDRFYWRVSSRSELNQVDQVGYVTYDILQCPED
T2 sequence (P14780 107-707 limits assumed): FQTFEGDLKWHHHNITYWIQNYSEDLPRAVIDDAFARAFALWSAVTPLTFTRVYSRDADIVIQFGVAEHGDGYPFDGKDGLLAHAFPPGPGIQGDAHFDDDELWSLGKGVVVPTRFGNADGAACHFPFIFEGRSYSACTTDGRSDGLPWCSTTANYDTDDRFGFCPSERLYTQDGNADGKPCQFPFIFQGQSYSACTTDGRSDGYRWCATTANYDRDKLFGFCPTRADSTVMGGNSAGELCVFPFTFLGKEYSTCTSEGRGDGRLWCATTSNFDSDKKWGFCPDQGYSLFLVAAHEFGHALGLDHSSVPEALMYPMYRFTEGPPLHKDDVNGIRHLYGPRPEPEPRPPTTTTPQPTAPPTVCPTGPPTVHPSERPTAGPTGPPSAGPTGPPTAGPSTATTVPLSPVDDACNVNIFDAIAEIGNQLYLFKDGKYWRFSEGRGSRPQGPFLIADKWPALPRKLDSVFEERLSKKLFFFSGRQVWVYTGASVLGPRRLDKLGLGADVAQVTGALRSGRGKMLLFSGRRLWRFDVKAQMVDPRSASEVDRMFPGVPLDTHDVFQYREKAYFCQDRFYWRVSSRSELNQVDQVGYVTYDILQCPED
T3 sequence (P14780 94-707): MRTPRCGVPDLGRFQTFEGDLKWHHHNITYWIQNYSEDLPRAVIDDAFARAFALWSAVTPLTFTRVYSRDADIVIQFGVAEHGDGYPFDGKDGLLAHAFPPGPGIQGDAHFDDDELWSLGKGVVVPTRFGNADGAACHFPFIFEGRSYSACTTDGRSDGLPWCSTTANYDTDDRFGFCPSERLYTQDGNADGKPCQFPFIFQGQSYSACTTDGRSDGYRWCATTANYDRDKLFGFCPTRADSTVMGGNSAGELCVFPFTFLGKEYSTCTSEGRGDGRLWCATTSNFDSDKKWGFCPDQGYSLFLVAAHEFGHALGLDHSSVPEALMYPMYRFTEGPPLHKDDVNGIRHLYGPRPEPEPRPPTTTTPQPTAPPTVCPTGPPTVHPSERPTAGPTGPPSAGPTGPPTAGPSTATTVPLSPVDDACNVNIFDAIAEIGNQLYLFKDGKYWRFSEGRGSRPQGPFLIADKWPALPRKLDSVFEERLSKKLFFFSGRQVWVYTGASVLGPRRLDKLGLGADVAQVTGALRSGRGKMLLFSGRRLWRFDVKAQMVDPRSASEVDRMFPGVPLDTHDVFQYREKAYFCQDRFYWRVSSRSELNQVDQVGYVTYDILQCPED
T4 sequence (P14780 94-707): as above

Row | Structure (SMILES) | Kd [1] | inhibition at 50 µM ([2]; 50 μM, 18 hours) | melting point | further results
1 | CCCc1cc(=O)nc(SCCCC(=O)Nc2ccc(OC(F)F)cc2)[nH]1 [Compound 2a, N-(4-Difluoromethoxyphenyl)-4-(4-oxo-6-propyl-1,4-dihydropyrimidin-2-ylthio)butanamide] | 1000 ± 200 nM | 63 ± 4% |  | 
2 | O=C(CCCSc1nc2c(c(=O)[nH]1)CCCC2)Nc1ccccc1 [Compound 3b, 4-(4-Oxo-3,4,5,6,7,8-hexahydroquinazolin-2-ylthio)-N-phenylbutanamide] | 500 ± 100 nM | 76 ± 1% |  | 
3 | O=C(CCCSc1nc2c(c(=O)[nH]1)CCCC2)Nc1nc2ccccc2[nH]1 [Compound 3d, N-(1H-Benzo[d]imidazol-2-yl)-4-(4-oxo-3,4,5,6,7,8-hexahydroquinazolin-2-ylthio)butanamide] | 500 ± 200 nM | 77 ± 2% | > 230 °C | 
4 | O=C(CCCSc1nc2ccccc2c(=O)[nH]1)Nc1ccc(F)cc1 [Compound 4c, N-(4-Fluorophenyl)-4-((4-oxo-3,4-dihydroquinazolin-2-yl)thio)butanamide] | 640 ± 60 nM | 73 ± 2% | 216 to 217 °C | 
5 | CNC(=O)[C@@H](NC(=O)[C@H](CC(C)C)[C@H](O)C(=O)NO)C(C)(C)C [marimastat, reference compound] |  |  |  | formation of focal adhesion contact sites ([3]; 80 nM, p-FAK and p-PAX): did not prevent the formation of focal adhesion contact sites; inhibition of MMP-9 catalytic activity [4]: no substrate cleavage was observed; cellular adhesion [5]: no observable effect on cell attachment
6 | O=C(CCCSc1nc2ccccc2c(=O)[nH]1)Nc1ccc(OC(F)F)cc1 [Compound 4a, N-(4-(Difluoromethoxy)phenyl)-4-(4-oxo-3,4-dihydroquinazolin-2-ylthio)butanamide] | 500 ± 100 nM | 78 ± 3% | 210 to 211 °C | 
7 | O=C(CCCSc1nc2ccccc2c(=O)[nH]1)Nc1nc2ccccc2[nH]1 [Compound 4d, N-(1H-Benzo[d]imidazol-2-yl)-4-(4-oxo-3,4-dihydroquinazolin-2-ylthio)butanamide] | 300 ± 100 nM | 81 ± 3% | > 230 °C | 
8 | CCCc1cc(=O)nc(SCC(=O)Nc2ccccc2)[nH]1 [Compound 1b, 2-(4-Oxo-6-propyl-1,4-dihydropyrimidin-2-ylthio)-N-phenylacetamide] | 4500 ± 600 nM | 12 ± 3% | 170 °C (dec.) | 
9 | CCCc1cc(=O)nc(SCC(=O)N(C)c2ccccc2)[nH]1 [Compound 1f, 2-(4-Oxo-6-propyl-1,4-dihydropyrimidin-2-ylthio)-N(methyl)-phenylacetamide, reference compound] |  |  |  | localization of MMP-9 on the cell surface [6]: did not disrupt the localization of MMP-9 on the cell surface; % Inhibition of proMMP9-Mediated Migration at 50 μM ([2]; 50 μM, 18 hours): 2 ± 6%; cellular adhesion [5]: no affect on cell adhesion
10 | CCCc1cc(=O)nc(SCCCC(=O)Nc2ccc(F)cc2)[nH]1 [Compound 2c, N-(4-Fluorophenyl)-4-(4-oxo-6-propyl-1,4-dihydropyrimidin-2-ylthio)butanamide] | 910 ± 100 nM | 68 ± 3% | 180 to 182 °C | 
11 | O=C(CCCSc1nc2c(c(=O)[nH]1)CCCC2)Nc1ccc(OC(F)F)cc1 [Compound 3a, N-(4-Difluoromethoxyphenyl)-4-(4-oxo-3,4,5,6,7,8-hexahydroquinazolin-2-ylthio)butanamide] | 600 ± 100 nM | 74 ± 2% | 197 to 198 °C | 
12 | CCCCCCNC(=O)CCCSc1nc2ccccc2c(=O)[nH]1 [Compound 4e, N-Hexyl-4-(4-oxo-3,4-dihydroquinazolin-2-ylthio)butanamide] | 900 ± 300 nM | 56 ± 1% |  | 
13 | CCCc1cc(=O)nc(SCC(=O)Nc2nc3ccccc3[nH]2)[nH]1 [Compound 1d, N-(1H-benzo[d]imidazol-2-yl)-2-(4-oxo-6-propyl-1,4-dihydropyrimidin-2-ylthio)acetamide] | 1200 ± 200 nM | 61 ± 2% | 217 °C (dec.) | 
14 | O=C(CCCSc1nc2ccccc2c(=O)[nH]1)Nc1ccccc1 [Compound 4b, 4-(4-Oxo-3,4-dihydroquinazolin-2-ylthio)-N-phenylbutanamide] | 800 ± 100 nM | 64 ± 4% |  | 
15 | CCCc1cc(=O)nc(SCC(=O)Nc2ccc(OC(F)F)cc2)[nH]1 [Compound 1a, N-(4-Difluoromethoxyphenyl)-2-(4-oxo-6-propyl-1,4-dihydropyrimidin-2-ylthio)acetamide] |  |  |  | Src^Tyr418 phosphorylation and phosphorylation of FAK^Tyr576/577 and PAX^Tyr118 [7]: reduced Src^Tyr418 phosphorylation; formation of FAK and PAX adhesion junctions ([3]; 50 μM overnight): A decrease in the formation of FAK and PAX adhesion junctions; inhibition of MMP-9 catalytic activity [4]: No inhibition of the catalytic activity was observed; angiogenic potential of HT1080 cells (neovascularization) [8]: significantly reduced the angiogenic potential of HT1080 cells; inhibition of proMMP-9-mediated migration [9]: only inhibited proMMP9-mediated migration; phosphorylation of EGFR^Tyr1068 and downstream targets AKT^Ser473 and Erk1/2^Thr202/Tyr204 [10]: reduced phosphorylation; endogenous CD44 and EGFR co-immunoprecipitation [11]: reduced endogenous CD44 and EGFR co-immunoprecipitation; endogenous α4β1 integrin co-immunoprecipitation [12]: reduced endogenous α4β3 integrin co-immunoprecipitation; inhibition of proMMP-14-mediated migration [13]: only inhibited proMMP9-mediated migration; localization of MMP-9 on the cell surface [6]: loss of MMP-9 from the cell surface; inhibition of proMMP-2-mediated migration [14]: only inhibited proMMP9-mediated migration; inhibitor effectiveness at concentrations above 50 μM ([2]; above 50 μM): did not increase inhibitor effectiveness; cellular adhesion [5]: inhibited cellular adhesion; invasion of CAM tissue [15]: reduced invasion of CAM tissue
16 | CCCc1cc(=O)nc(SCC(=O)Nc2ccc(F)cc2)[nH]1 [Compound 1c, N-(4-Fluorophenyl)-2-(4-oxo-6-propyl-1,4-dihydropyrimidin-2-ylthio)acetamide] | 3800 ± 600 nM | 29 ± 4% | 191 to 194 °C | 
17 | CN[C@@H]1C[C@H]2O[C@@](C)([C@@H]1OC)n1c3ccccc3c3c4c(c5c6ccccc6n2c5c31)C(=O)NC4 [STS, staurosporine, reference compound] |  |  |  | cell death [16]: Significant cell death
